Measured values: US4386103A, “Dichloroamino acid derivatives useful as potent germicidal and fungicidal agents” (Merck & Co., Inc., priority 1981, dated 1983)

Legend:
[1] = tested on: Staphylococcus epidermidis; experiment: Contact germicidal screen, Staphylococcus epidermidis ATCC No. 12228; type: cell-based
Experimental: The organisms used in the contact germicidal screen are all maintained as stock cultures on nutrient agar […] 4° C. They are transferred and biochemically diagnosed monthly. The five organisms used are: The media used are: […] Overnight cultures of the test organisms are grown in tryptose phosphate broth. After 15-16 hours, the cultures are centrifuged at […] for 15 minutes, and the supernatant replaced with fresh warm (37° C.) media. After two hours of incubation, the absorbance of the culture at 650 nm is determined and diluted with nutrient broth to 1×10^7 colony forming units per ml (using a previous determined standard curve: colony forming units/ml vs. absorbance at 650). The diluted cultures are maintained at 4°-8° C. throughout the screen. The compounds are weighed into sterile 100 ml volumetric flasks, and immediately before screening dissolved in one of the following buffers: 0.1 M NaOAc pH 4.6 or 0.1 M NaH2 PO4 pH 7.0. If solubility poses a problem, 10-30% methanol is used to effect solution. Two denaturing agents are also tested: […] Horse Serum restored with 100 ml distilled water and 10% Trition×100. When used, 2.5 ml of the denaturing agent is mixed with 2.5 ml of double strength test solution thirty minutes before the bacterial suspension is added. The screen is initiated when 0.2 ml of the bacterial suspension is added to 5.0 ml of the test solution contained in a sterile 25 ml glass stoppered flask. At intervals of 0.5, 2.5, 5.0, 10.0 and 15.0 minutes, a loopful of the inoculated test solution is subcultured into 5 ml of sterile nutrient broth and mixed with a vortex, the high dilution serving to stop the action of the compound. All of the subculture tubes are incubated at 37° C. and checked for signs of growth by turbidity at 1, 3, 5 and 7 days. The earliest subculture time at which no growth is present is considered the endpoint and is recorded as the sterilization time. An aliquot of 0.2 ml of the diluted culture is transferred to 5 ml of buffer to simulate 0.2 ml in 5 ml of test solution. (a) Purity: A loopful of the inoculated buffer is streaked onto nutrient agar to check colony morphology and lack of contaminants. (b) Viability: A loopful of the inoculated buffer is subcultured to 5 ml of nutrient broth as in the screen and incubated at 37° C. for 24 hours. (c) Dilution of the Test Solution: A loopful of the test solution is transferred to a 5 ml tube of nutrient broth, and a loopful of the inoculated buffer is transferred to the same tube of broth. […] (d) Purity of Organisms in the Test Solution: After the 15 minute subculture, a loopful of the inoculated test solution is streaked onto nutrient agar to insure that contamination has not occurred during the screen. (e) lack of Bactericidal Activity of Buffers and Other Solvents: Before a buffer or other solvent is used as a diluent, it is screened against the five organisms to insure that the buffer or solvent has no antibacterial activity itself.

Aspergillus fumigatus = experiment: Contact fungicidal screen, Aspergillus fumigatus; type: cell-based; settings: 0.1M NaOAc pH 4.6
Experimental: (§1) The organisms used in the Contact Fungicidal Screen are a dermatophyte, trychophyton mentagrophytes, frequently associated with athlete's foot; a yeast, Candida albican, causative agent of thrush and vaginitis; a phycomycete, Rhizopus oryzae, commonly known as black bread mold; an ascomycete, Aspergillus fumagatis, found in chicken droppings and causing lung infections; and another dermatophyte, Microsporum canis, which causes ringworm. These organisms are maintained as stock cultures at 4° C. on agar […] of the following composition: dextrose 2%, Neopeptone (Difco) 1%, agar 2%. Fluid medium of the same nutrient composition (without agar) was used to test the viability of the organisms after exposure to the fungicide. This medium is also known as Sabouraud's medium. Sabouraud's agar plate cultures of Aspergillus fumigatus, Microsporum canis, and a different culture of Trychophyton mentagrophytes are prepared by planting an inoculum at the center of an agar plate and incubating at 25°-30° C. for seven to ten days. The mycelial mats are removed from the surface of the agar and prepared in the same manner as the Rhizopus culture. The compounds are weighed into heat sterilized 100 ml volumetric flasks and immediately before screening dissolved in 0.1 M NaOAc pH 4.6 buffer (test solutions). The Aspergillus, Candida, Microsporum and Rhizopus species are screened in a slightly different manner. Basically, the procedure for the Contact Germicidal Efficiency Screen is utilized. After the test solutions are made up, 5 ml aliquots are pipetted into heat sterilized 25 ml glass stoppered erlenmeyer flasks. The screen is initiated when 0.5 ml of the 5×10^6 cell (spore) per ml suspension is added to the flask containing 5 ml of the test solution. […] The subculture tubes are incubated at 25°-30° C. for ten days with daily observation for mycelial growth. The earliest subculture time at which no growth is present is considered the endpoint and is recorded as the sterilization time. To insure the viability of the culture, a 0.5 ml aliquot of the 5×10^6 cells (spores) per ml suspension is transferred to 5 ml of the pH 4.6 buffer. A loopful of the inoculated buffer is then subcultured to 7 ml of fluid Sabouraud's medium and incubated at 25°-30° C. for ten days. To insure that the dilution of the test solution into the subculture medium does stop the action, a loopful of the test solution and a loopful of the inoculated buffer are transferred into the same subculture tube. This tube is also incubated at 25°-30° C. for ten days.

Microsporum canis = experiment: Contact fungicidal screen, Microsporum canis; type: cell-based; settings: 0.1M NaOAc pH 4.6
Experimental: as §1

[2] = tested on: Trychophyton mentagrophytes; experiment: Contact fungicidal screen, Trychophyton mentagrophytes; type: cell-based; settings: 0.1M NaOAc pH 4.6
germs = experiment: Germicidal activity, lowest active concentration; type: cell-based; settings: read-out: concentration at which germicidal activity is shown
[3] = Stability in Triacetin (preliminary formulation studies); type: physicochemical; settings: 60° C., two months
From the text: Triacetin is the triacetate of glycerin; it is a viscous liquid with high water solubility and very low toxicity. […] Of course other aprotic polar solvents can be used as well.

[4] = 10.0+ PPM, 0.1M NaOAc pH 4.6, screened simultaneously with four other compounds
[5] = 300 PPM with 50% Horse Serum, 0.1M NaOAc pH 4.6
[6] = 300 PPM with 50% Triton X100, 0.1M NaOAc pH 4.6
[7] = 1000 PPM with 50% Horse Serum, 0.1M NaOAc pH 4.6

CC(C)(CC(=O)O)N(Cl)Cl [(II)]
Sterilization Time ([1]; 1.8 PPM, 0.1M NaOAc pH 4.6): 15 min | Sterilization Time ([1]; 4.5 PPM, 0.1M NaOAc pH 4.6): 10.0 min | Sterilization Time [1, 4]: 2.5 min | Sterilization Time (summary) ([1]; 10 PPM, 0.1M NaOAc pH 4.6): 2.5 min | Sterilization Time ([1]; 10.0 PPM, 0.1M NaOAc pH 4.6): 5.0 min | Sterilization Time ([1]; 12.2 PPM, 0.1M NaOAc pH 4.6): 2.5 min | Sterilization Time ([1]; 32.1 PPM, 0.1M NaOAc pH 4.6): 2.5 min | Sterilization Time ([1]; 51.0 PPM, Triton X100 (10% solution):pH 4.6 buffer 1:1): 2.5 min | Sterilization Time ([1]; 51.0 PPM, horse serum:pH 4.6 buffer 1:1): 15 min | Sterilization Time ([1]; 71.7 PPM, 0.1M NaOAc pH 4.6): 0.5 min | Sterilization Time (summary) ([1]; 100 PPM, 0.1M NaOAc pH 4.6): 0.5 min | Sterilization Time ([1]; 104.7 PPM, 0.1M NaOAc pH 4.6): 0.5 min | Sterilization Time ([1]; 107.8 PPM, 0.1M NaH2PO4 pH 7.0): 15.0 min | Sterilization Time ([1]; 298.9 PPM, 0.1M NaOAc pH 4.6): 0.5 min | Sterilization Time (summary) [1, 5]: 15 min | Sterilization Time (summary) [1, 6]: 0.5 min | Sterilization Time ([1]; 300 PPM, pH 4.6 buffer with 10% serum): 0.5 min | Sterilization Time ([1]; 300 PPM, pH 4.6 buffer with 20% serum): 2.5 min | Sterilization Time ([1]; 300 PPM, pH 4.6 buffer with 35% serum): 15.0 min | Sterilization Time ([1]; 304.6 PPM, horse serum:pH 4.6 buffer 1:1): 15 min | Sterilization Time ([1]; 304.8 PPM, Triton X100 (10% solution):pH 4.6 buffer 1:1): 0.5 min | Sterilization Time ([1]; 316.6 PPM, 0.1M NaH2PO4 pH 7.0): 10.0 min | Sterilization Time ([1]; 606.9 PPM, pH 4.6 buffer with 33% serum): 0.5 min | Sterilization Time ([1]; 899.25 PPM, pH 4.6 buffer with 25% serum): 0.5 min | Sterilization Time (summary) [1, 7]: 0.5 min | Sterilization Time (summary) ([1]; 1000 PPM, 0.1M NaOAc pH 4.6): 0.5 min | Sterilization Time ([1]; 1001.2 PPM, horse serum:pH 4.6 buffer 1:1): 0.5 min | Sterilization Time ([1]; 1014.8 PPM, 0.1M NaOAc pH 4.6): 0.5 min | Sterilization Time ([1]; 1016.0 PPM, 0.1M NaH2PO4 pH 7.0): 2.5 min | Sterilization Time (Aspergillus fumigatus; 10 PPM): 15 min | Sterilization Time (Aspergillus fumigatus; 100 PPM): 15 min | Sterilization Time (Aspergillus fumigatus; 1000 PPM): 15 min | Sterilization Time (Microsporum canis; 10 PPM): 15 min | Sterilization Time (Microsporum canis; 100 PPM): 10.0 min | Sterilization Time (Microsporum canis; 1000 PPM): 2.5 min | Sterilization Time ([2]; 10 PPM): 5.0 min | Sterilization Time ([2]; 100 PPM): 0.5 min | Sterilization Time ([2]; 1000 PPM): 0.5 min | minimal effective concentration (germs): ≤ 5 µg/mL

CC(C)(COC(=O)CCC(=O)O)N(Cl)Cl [(IV), 2-Dichloroamino-2-methylpropylhemisuccinate]
Sterilization Time ([1]; 8.6 PPM, 0.1M NaOAc pH 4.6): 15.0 min | Sterilization Time ([1]; 9.8 PPM, 0.1M NaH2PO4 pH 7.0): 15 min | Sterilization Time [1, 4]: 10.0 min | Sterilization Time (summary) ([1]; 10 PPM, 0.1M NaOAc pH 4.6): 10.0 min | Sterilization Time (summary) ([1]; 100 PPM, 0.1M NaOAc pH 4.6): 2.5 min | Sterilization Time ([1]; 106.2 PPM, 0.1M NaOAc pH 4.6): 2.5 min | Sterilization Time ([1]; 149.7 PPM, 0.1M NaH2PO4 pH 7.0): 15 min | Sterilization Time (summary) [1, 5]: 15 min | Sterilization Time (summary) [1, 6]: 2.5 min | Sterilization Time ([1]; 308.0 PPM, Triton X100 (10% solution):pH 4.6 buffer 1:1): 2.5 min | Sterilization Time ([1]; 338.7 PPM, horse serum:pH 4.6 buffer 1:1): 15 min | Sterilization Time (summary) [1, 7]: 2.5 min | Sterilization Time (summary) ([1]; 1000 PPM, 0.1M NaOAc pH 4.6): 0.5 min | Sterilization Time ([1]; 1008.0 PPM, 0.1M NaOAc pH 4.6): 0.5 min | Sterilization Time ([1]; 1024.0 PPM, horse serum:pH 4.6 buffer 1:1): 2.5 min | Sterilization Time ([1]; 1070.3 PPM, 0.1M NaH2PO4 pH 7.0): 10.0 min | Sterilization Time (Aspergillus fumigatus; 10 PPM): 15 min | Sterilization Time (Aspergillus fumigatus; 100 PPM): 15 min | Sterilization Time (Aspergillus fumigatus; 1000 PPM): 15 min | Sterilization Time (Microsporum canis; 10 PPM): 15 min | Sterilization Time (Microsporum canis; 100 PPM): 15.0 min | Sterilization Time (Microsporum canis; 1000 PPM): 2.5 min | Sterilization Time ([2]; 10 PPM): 5.0 min | Sterilization Time ([2]; 100 PPM): 2.5 min | Sterilization Time ([2]; 1000 PPM): 0.5 min | decomposition in esters of polyalcohols such as Triacetin [3]: no decomposition
